In the METLIN SMRT retention time set (Domingo-Almenara et al. 2019) one finds RP-LC retention time data, which are given here for 79 compounds.

The data set is described as follows: gradient 5% acetonitrile 3 min, to 50% in 2 min, to 85% in 15 min, held 3 min, 100 µL/min. Conditions: column: Zorbax Extend-C18 2.1 x 50 mm; eluents: water / acetonitrile, 0.1% formic acid. The essentials:
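The system's dead and dwell volumes were 40 μL and 900 μL, with a Zorbax Extend-C18 column (2.1 × 50 mm, 1.8 μm) run at 100 μL/min in water and acetonitrile containing 0.1% formic acid each. Pure standards were analyzed in mixtures of ~100 molecules by HPLC–quadrupole time-of-flight mass spectrometry in positive and negative ionization mode. Retention time was assigned from computationally picked, manually inspected adduct peaks.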
With `Cc1ccc(NC(=O)c2cccn2Cc2noc(C3CC3)n2)cc1F`, the RP-LC retention time is 1010 s.
Compound `COc1cc(Nc2nc3ccccc3nc2NS(=O)(=O)c2ccc(NC(=O)c3ccc(C)c(OC)c3)cc2)cc(OC)c1` yielded an RP-LC retention time of 1240 s.
Next, `O=C(NC1CCCC1)C1CCCN(S(=O)(=O)Cc2ccccc2Cl)C1` (centres undefined): 915 s; `Cn1c(=O)c(N2CCC(NC(=O)Nc3ccc(Cl)cc3)CC2)nc2ccccc21`: 904 s.
`Cc1sc2ccn(C)c(=O)c2c1C(=O)NCc1ccccc1F` showed an RP-LC retention time of 751 s.
Regarding `CCc1nc(-c2ccc(OC3CCN(CCc4ccccc4)C3)cc2)no1` (centres undefined), the RP-LC retention time was 744 s.
Compound `CCCN1C(=O)c2ccccc2C(C(=O)NC2CCCCC2)C1c1cc(OC)c(OC)c(OC)c1` (centres undefined) came in with an RP-LC retention time of 838 s.
With `Cc1ccc(Nc2ncccc2S(N)(=O)=O)c(F)c1` the figure was 840 s; with `Clc1ccc(-c2nc3cnccn3c2Nc2cccc(Cl)c2)cc1`, 1060 s.
In the case of `O=S(=O)(NCc1ccccc1F)c1c[nH]c2ncccc12`, the RP-LC retention time worked out at 708 s.
In the case of `COc1cc(NC(=O)c2cc3cc4cc(OC)ccc4nc3o2)cc(OC)c1`, the RP-LC retention time came to 971 s.
With `Cc1nn2c(CNS(=O)(=O)c3ccc4c(c3)OCCO4)c(-c3ccccc3)nc2s1`, the RP-LC retention time came to 817 s.
Next, `CC(NC(=O)C1=C2CCCN2c2ccccc2S1(=O)=O)c1ccccc1` (centres undefined): 855 s; `CC(=O)c1ccc(Oc2ccc(/C(C)=N\N=C(N)N)cc2)cc1`: 674 s.
As to `COc1cccc(CC(=O)NC(C)C(=O)Nc2nc3ccccc3[nH]2)c1` (centres undefined), the RP-LC retention time was determined as 640 s.
Compound `O=C(Cn1nc2c3cc(-c4ccc(F)cc4)nn3ccn2c1=O)Nc1ccc(F)cc1` yielded an RP-LC retention time of 888 s.
With `O=C(CN1C(=O)CCCc2cc(S(=O)(=O)N3CCCC3)ccc21)NCc1ccccc1` the figure was 885 s; with `CCn1cc(C)c(C(=O)O)c1CC(=O)Nc1cc(C)cc(C)c1`, 907 s.
On to `O=S(=O)(CCc1noc(-c2ccc3c(c2)OCO3)n1)c1ccccc1`, for which the RP-LC retention time turned out to be 899 s.
Regarding `COc1ccc(-c2cc3n(n2)CCCN(C(=O)CCC(=O)c2ccc(F)cc2)C3)cc1`, the RP-LC retention time was determined as 879 s.
Next, `CC1=C(c2ccccc2)S(=O)(=O)N=C1N1CCCN(C(=O)NC(C)(C)C)CC1`: 790 s; `COCCNC(=O)C1c2cc(OC)c(OC)cc2C(=O)N(C)C1c1ccc(OC)cc1` (centres undefined): 661 s; `COc1cc(NC(=O)NC(C)C(=O)N2CCc3ccccc32)cc(OC)c1` (centres undefined): 817 s.
Next, `CC(C)CCNC(=O)c1ccc2c(c1)N(C)C(=O)C1CCCCN21` (centres undefined): 885 s.
For the compound `CCCn1c(=O)sc2cc(S(=O)(=O)N3CCC(C(=O)Nc4ccc(F)c(F)c4)CC3)ccc21`, the RP-LC retention time was determined as 1030 s.
Take `Cc1noc(/C=C\c2ccc(S(=O)(=O)NCC3CCCO3)cc2)c1NC(=O)C1CC1` (centres undefined): the RP-LC retention time was found to be 737 s.
With `COc1ccc(NC(=O)Cn2cccc2-c2nnc(C3CCC3)o2)cc1Cl` the figure was 951 s; with `O=C(NCc1nc(-c2ccc3c(c2)Sc2ccccc2C(=O)N3C2CC2)no1)c1cccs1`, 928 s; with `CC1CCC2(CC1)NC(=O)N(CC(=O)Nc1ccc3c(c1)OCO3)C2=O` (centres undefined), 708 s.
`COC(=O)c1cc(S(=O)(=O)N2CCCC2C(=O)Nc2ccc(C)cc2Br)cn1C` (centres undefined) yielded an RP-LC retention time of 1000 s.
Next, `Cc1nnc(-c2nnc(NCc3ccc(Cl)cc3)c3ccccc23)o1`: 886 s; `Cc1noc(C2CCCCN2C(=O)c2cc(-c3ccccc3)n[nH]2)n1` (centres undefined): 796 s.
`O=C(NCc1ccc(Cl)cc1)C1=C2CCCN2c2ccc(F)cc2S1(=O)=O` displayed an RP-LC retention time of 941 s.
With `Cc1ccc(S(=O)(=O)CCc2noc(C(=O)NCCN3CCC(C)CC3)n2)cc1` the figure was 631 s; with `CCc1nnc2cc(N3CCN(C(=O)Nc4cccc(F)c4)CC3)cnn12`, 655 s.
`O=C(NCc1ccccc1)N1CCc2nc(-c3ccccc3)ncc2C1` came in with an RP-LC retention time of 848 s.
As for `CCn1cc(-c2nc(C(=O)Nc3ccc(F)c(F)c3)cs2)c2cccnc21`, the RP-LC retention time was 940 s.
In turn, `O=C(c1ccccc1F)N1CCN(C(=O)c2nnn3c2COC(c2ccc(Cl)cc2)C3)CC1` (centres undefined) showed an RP-LC retention time of 914 s.
Consider `Cc1ccc(-n2nc(C)c3sc(N4CCCC(C(=O)NC(C)CCc5ccccc5)C4)nc32)cc1` (centres undefined), for which the RP-LC retention time worked out at 1300 s.
With `Cc1cccc(OCc2nnc(SCC(=O)Nc3nc(-c4ccccc4)cs3)o2)c1` the figure was 1070 s; with `Cc1ccc(C)c(NC(=O)N(C)CCc2noc(COc3ccccc3)n2)c1`, 934 s; with `Cc1nnc(N2CCCC(C(=O)NCCCOC(C)C)C2)c2nn(-c3ccccc3)c(C)c12` (centres undefined), 678 s.
Next, `COc1ccccc1NC(=O)N1CCC2(CC1)NC(=O)c1ccc(F)cc1N2C`: 745 s; `CSc1ccc(-c2nc3cnccn3c2Nc2ccc(C)cc2Br)cc1`: 1140 s; `CNC(=O)C1CCN(C(=O)Nc2ccc(NC(=O)Nc3ccccc3)cc2)CC1`: 636 s.
Next, `Cc1nc2c(C)cccn2c(=O)c1NC(=O)COc1ccc(Cl)cc1Cl`: 838 s.
Compound `O=C(c1cn(-c2cc(N3CCCCC3)ncn2)cn1)N1CCc2ccccc2C1` came in with an RP-LC retention time of 973 s.
`CCC(=O)Nc1cc(C)n(Cc2ccccc2)n1` had an RP-LC retention time of 733 s.
Take `O=C(c1cccs1)N1[C@H]2CC[C@@H]1c1cnc(-c3ccc(F)cc3)nc1C2`: the RP-LC retention time turned out to be 979 s.
With `Cc1cc(C)cc(C(=O)N2CCN(c3nc(CN4CCOCC4)cs3)CC2)c1` the figure was 647 s; with `CCc1nccn1Cc1noc(-c2ccc(C)c(C)c2)n1`, 672 s; with `CSc1cccc(NC(=O)N2CCN(c3cc(C)nc(N4CCCC4)n3)CC2)c1`, 696 s.
With `Cc1ccc(-c2cc(C(=O)N3CCN(c4ccccn4)CC3)ccn2)s1` the figure was 639 s; with `O=S(=O)(Nc1ccc(Cl)cn1)c1cc(-c2noc(C3CCCC3)n2)cs1`, 1070 s.
In the case of `CCCCn1cc(S(=O)(=O)NCc2ccccc2F)c2cccnc21`, the RP-LC retention time was 754 s.
`CCCn1cc(C2=CCN(S(=O)(=O)Cc3ccccc3)CC2)c2cccnc21` returned an RP-LC retention time of 1070 s.
With `O=C(Cc1nnc2c(-c3nc(C4CC4)no3)cccn12)N1CCc2ccccc2C1` the figure was 722 s; with `COC(=O)c1sccc1NC(=O)N1CCCn2nc(-c3ccc(OC)cc3)cc2C1`, 970 s.
Next, `CC(C)CNC(=O)c1ccc(-c2cccs2)nc1`: 825 s.
Next, `CC(C)c1cnc2c(c1SCc1ccccn1)c(=O)n(C)c(=O)n2C`: 737 s; `C=CCNC(=O)Cc1c(C)n(C)c2nc(-c3ccccc3)nn2c1=O`: 663 s; `O=S(=O)(Nc1ccc(Cl)cc1)c1c[nH]c2ncccc12`: 750 s.
For `Cc1ccn2c(Nc3ccc4c(c3)OCO4)c(-c3ccc(Cl)cc3)nc2c1`, the RP-LC retention time was 736 s.
With `N#Cc1ccc(CN2C[C@@H]3C(=O)N(CCN4CCc5ccccc5C4)C(=O)[C@@H]3C2)cc1` the figure was 618 s; with `Cc1c(S(=O)(=O)N2CCCC(C)C2)c(C)n(C)c1C(=O)Nc1ccccc1F` (centres undefined), 895 s.
With `COc1ccc(NC(=O)C2CCCN(c3nc4cccnc4s3)C2)cc1` (centres undefined) the figure was 797 s; with `COc1ccc(N2CCN(c3cc(SCC(=O)Nc4ccc(C)c(Cl)c4)ncn3)CC2)cc1`, 1100 s.
Turning to `Cc1ccc(CNC(=O)C2CCN(S(=O)(=O)c3ccc4[nH]c(=O)ccc4c3)CC2)cc1`, the RP-LC retention time turned out to be 738 s.
With `CCC1CCCCN1C(=O)c1cnc2nc(C)ccc2c1Nc1cc(Cl)ccc1OC` (centres undefined) the figure was 731 s; with `COCCn1cc(CCNC(=O)Nc2ccc(C)cc2Cl)c2cccnc21`, 790 s.
Next, `C=CCNC(=O)c1cn(-c2cc(-c3nc(C4CC4)no3)ccn2)cn1`: 800 s; `CC(C)CCNC(=O)CN1c2ccc(F)cc2-c2ccccc2S1(=O)=O`: 963 s.
In turn, `Cc1ccc2c(c1)C(=O)NC1(CCN(C(=O)Nc3ccc(C)c(C)c3)CC1)N2C` displayed an RP-LC retention time of 796 s.
Turning to `Cc1c(CN2CCSCC2)nnn1-c1ccc(F)cc1`, the RP-LC retention time was 610 s.
Regarding `CCn1cnc2c1CN(C(=O)c1ccc3c(c1)OCO3)CC2`, the RP-LC retention time came out at 564 s.
As for `Cc1nc(C)c(C(=O)N2CCC(Cc3noc(C4CC4)n3)C2)s1` (centres undefined), the RP-LC retention time is 664 s.
For `COc1ccc(-c2nnc(-c3ccc(-n4ccnc4)nc3)o2)c(OC)c1`, the RP-LC retention time stood at 630 s.
Next, `Cc1ccc2[nH]cc(CCN3CC(C(=O)Nc4ccc5c(c4)CCC5)CC3=O)c2c1` (centres undefined): 925 s.
Next, `O=C(Nc1ccc(Cl)cc1)C1CCN(C(=O)c2ncn3c2COC(c2ccccc2)C3)CC1` (centres undefined): 859 s.
